# From DBAASP
# Assays:
# Experiment in all cases: ≥ marks a high value that may be exact or a test limit, other limits are often not marked, values filed in µg/mL are converted to µM
# [1] = tested on: Staphylococcus aureus ATCC 29213
# [2] = tested on: Escherichia coli ATCC 25922
# [3] = tested on: Pseudomonas aeruginosa ATCC 27853
# Escherichia coli = tested on: Escherichia coli
# Pseudomonas aeruginosa = tested on: Pseudomonas aeruginosa
# Staphylococcus aureus = tested on: Staphylococcus aureus
# [4] = tested on: Pseudomonas aeruginosa PAO1
# [5] = tested on: Staphylococcus aureus ATCC 25923
SMILES,MIC [1],MIC [2],also measured
CC(C)C[C@H](NC(=O)[C@H](CCCN=C(N)N)NC(=O)CNC(=O)CNC(=O)[C@@H](N)CCCN=C(N)N)C(=O)N[C@H]1CSSC[C@@H](C(=O)N[C@@H](CCC(=O)O)C(=O)O)NC(=O)[C@H](C(C)C)NC(=O)[C@@H]2CSSC[C@H](NC(=O)[C@H](Cc3ccc(O)cc3)NC1=O)C(=O)N[C@@H](CCCN=C(N)N)C(=O)N[C@@H](CCCN=C(N)N)C(=O)N[C@@H](CCCN=C(N)N)C(=O)N[C@@H](Cc1ccccc1)C(=O)N2 [RGGRLCYCRRRFCVCE],–,–,MIC (Escherichia coli): 0.303 µM
CC(C)C[C@H](NC(=O)[C@H](CCCCN)NC(=O)[C@H](CC(C)C)NC(=O)[C@H](CC(C)C)NC(=O)[C@H](CCCCN)NC(=O)[C@H](CCCCN)NC(=O)[C@H](CCC(=O)O)NC(=O)[C@H](CC(C)C)NC(=O)[C@H](CCCCN)NC(=O)[C@H](CC(C)C)NC(=O)[C@H](CC(C)C)NC(=O)[C@H](CCCCN)NC(=O)[C@H](CCCCN)NC(=O)[C@@H](N)CC(C)C)C(=O)N[C@@H](C)C(=O)NCC(=O)O [LKKLLKLEKKLLKLAG],> 40 µM,5 µM,–
CC(C)C[C@H](NC(=O)CNC(=O)[C@H](C)NC(=O)[C@H](CC(C)C)NC(=O)[C@H](CCCCN)NC(=O)[C@H](CCCCN)NC(=O)[C@H](C)NC(=O)[C@H](CC(C)C)NC(=O)CNC(=O)[C@H](C)NC(=O)[C@H](CC(C)C)NC(=O)[C@H](CCCCN)NC(=O)[C@H](CCCCN)NC(=O)[C@H](C)NC(=O)[C@H](CC(C)C)NC(=O)CNC(=O)[C@H](C)NC(=O)[C@H](CC(C)C)NC(=O)[C@@H](N)CCCCN)C(=O)N[C@@H](C)C(=O)N[C@@H](CCCCN)C(N)=O [KLAGLAKKLAGLAKKLAGLAK],7.75 µM,3.88 µM,MIC [3]: 62 µM
CC(C)C[C@H](NC(=O)CNC(=O)[C@H](CCCCN)NC(=O)[C@H](C)NC(=O)[C@H](CC(C)C)NC(=O)[C@H](CCCCN)NC(=O)[C@H](C)NC(=O)[C@H](CC(C)C)NC(=O)CNC(=O)[C@H](CCCCN)NC(=O)[C@H](C)NC(=O)[C@H](Cc1c[nH]c2ccccc12)NC(=O)[C@H](CCCCN)NC(=O)[C@H](C)NC(=O)[C@H](CC(C)C)NC(=O)CNC(=O)[C@H](CCCCN)NC(=O)[C@H](C)NC(=O)[C@H](CC(C)C)NC(=O)[C@@H](N)CCCCN)C(=O)N[C@@H](C)C(N)=O [KLAKGLAKWAKGLAKLAKGLA],–,–,MIC (Pseudomonas aeruginosa): 15 µM; MIC (Escherichia coli): 3.74 µM; MIC (Staphylococcus aureus): 3.74 µM
CC[C@H](C)[C@H](NC(=O)[C@@H](NC(=O)[C@H](CC(N)=O)NC(=O)[C@H](CC(C)C)NC(=O)[C@H](CCSC)NC(=O)[C@@H](NC(=O)[C@H](Cc1ccccc1)NC(=O)[C@H](Cc1ccccc1)NC(=O)[C@H](CC(N)=O)NC(=O)[C@H](CCCCN)NC(=O)[C@H](CC(C)C)NC(=O)[C@H](CC(N)=O)NC(=O)[C@H](CCCCN)NC(=O)[C@@H](NC(=O)[C@@H](NC(=O)[C@@H](NC(=O)[C@H](C)NC(=O)[C@@H](NC(=O)[C@H](CCCCN)NC(=O)[C@@H](N)CCCCN)[C@@H](C)CC)[C@@H](C)CC)[C@@H](C)CC)[C@@H](C)O)[C@@H](C)CC)[C@@H](C)CC)C(=O)O [KKIAIITKNLKNFFIMLNII],–,–,MIC [4]: > 128 µM
CC(C)C[C@H](NC(=O)[C@H](Cc1ccccc1)NC(=O)[C@H](CCCCN)NC(=O)[C@H](CO)NC(=O)[C@@H](NC(=O)[C@H](CC(C)C)NC(=O)[C@H](CCCCN)NC(=O)[C@H](CCCCN)NC(=O)[C@H](CCCCN)NC(=O)[C@H](Cc1ccccc1)NC(=O)[C@H](CO)NC(=O)[C@H](CCCCN)NC(=O)[C@H](Cc1c[nH]c2ccccc12)NC(=O)[C@@H](N)CCCCN)[C@@H](C)O)C(=O)N[C@@H](Cc1cnc[nH]1)C(=O)N[C@@H](CO)C(=O)N[C@@H](C)C(=O)N[C@@H](CCCCN)C(=O)N[C@@H](CCCCN)C(=O)N[C@@H](Cc1ccccc1)C(N)=O [KWKSFKKKLTSKFLHSAKKF],–,–,MIC (Pseudomonas aeruginosa): 5.06 µM
CC[C@H](C)[C@H](NC(=O)CNC(=O)[C@H](CO)NC(=O)[C@H](CC(C)C)NC(=O)[C@@H](NC(=O)CN)[C@@H](C)CC)C(=O)N[C@@H](CC(C)C)C(=O)NCC(=O)N[C@@H](CCSC)C(=O)NCC(=O)N[C@@H](CCCCN)C(=O)N[C@@H](CCCCN)C(=O)N[C@@H](CC(C)C)C(=O)N[C@H](C(=O)N[C@H]1CSSC[C@@H](C(=O)O)NC(=O)[C@H](CC(C)C)NC(=O)CNC(=O)[C@H](CO)NC(=O)[C@H](CC(C)C)NC(=O)CNC1=O)C(C)C [GILSGILGMGKKLVCGLSGLC],–,–,MIC (Escherichia coli): 15 µM; MIC (Staphylococcus aureus): 50 µM
CC(=O)N[C@@H](CC(C)C)C(=O)N[C@@H](CCCCN)C(=O)N[C@@H](CCCCN)C(=O)N[C@@H](CC(C)C)C(=O)N[C@@H](CC(C)C)C(=O)N[C@@H](CCCCN)C(=O)N[C@@H](CC(C)C)C(=O)N[C@@H](CC(C)C)C(=O)N[C@@H](CCCCN)C(=O)N1CCC[C@H]1C(=O)N[C@@H](CC(C)C)C(=O)N[C@@H](CC(C)C)C(=O)N[C@@H](CCCCN)C(=O)N[C@@H](CC(C)C)C(N)=O [LKKLLKLLKPLLKL],2.5 µM,5 µM,–
CC[C@H](C)[C@H](NC(=O)[C@H](C)NC(=O)[C@H](CO)NC(=O)[C@H](CC(C)C)NC(=O)[C@@H](N)Cc1ccccc1)C(=O)N[C@@H](C)C(=O)N[C@@H](CO)C(=O)N[C@@H](CCSC)C(=O)N[C@@H](CC(C)C)C(=O)NCC(=O)N[C@@H](CCCCN)C(=O)N[C@@H](Cc1ccccc1)C(=O)N[C@@H](CC(C)C)C(=O)O [FLSAIASMLGKFL],–,–,MIC (Staphylococcus aureus): 200 µM
NCC(=O)N[C@@H](CCCN=C(N)N)C(=O)N[C@@H](CCCN=C(N)N)C(=O)N1CCC[C@H]1C(=O)N[C@@H](CCCN=C(N)N)C(=O)N1CCC[C@H]1C(=O)N[C@@H](CCCN=C(N)N)C(=O)N1CCC[C@H]1C(=O)N[C@@H](CCCN=C(N)N)C(=O)N1CCC[C@H]1C(N)=O [GRRPRPRPRP],> 160 µM,> 160 µM,MIC [3]: > 160 µM
CC[C@H](C)[C@H](NC(=O)[C@H](Cc1ccccc1)NC(=O)[C@H](CO)NC(=O)[C@H](CCCCN)NC(=O)[C@H](Cc1c[nH]c2ccccc12)NC(=O)[C@@H](N)CCCCN)C(=O)N[C@@H](CC(N)=O)C(=O)N[C@@H](CCCCN)C(=O)N[C@@H](CC(C)C)C(=O)N[C@H](C(=O)N[C@@H](CO)C(=O)N[C@@H](CCCCN)C(=O)N[C@@H](Cc1ccccc1)C(=O)N[C@@H](CC(C)C)C(=O)N[C@@H](Cc1cnc[nH]1)C(=O)N[C@@H](CO)C(=O)N[C@@H](C)C(=O)N[C@@H](CCCCN)C(=O)N[C@@H](CCCCN)C(=O)N[C@@H](Cc1ccccc1)C(N)=O)[C@@H](C)O [KWKSFINKLTSKFLHSAKKF],–,–,MIC (Pseudomonas aeruginosa): 5.13 µM
CC(=O)N[C@@H](CCCCN)C(=O)N[C@@H](CC(C)C)C(=O)N[C@@H](CC(C)C)C(=O)N[C@@H](CCCCN)C(=O)N1CCC[C@H]1C(=O)N[C@@H](CC(C)C)C(=O)N[C@@H](CCCCN)C(=O)N[C@@H](CCCCN)C(=O)N[C@@H](CC(C)C)C(=O)N[C@@H](CC(C)C)C(=O)N[C@@H](CCCCN)C(=O)N[C@@H](CC(C)C)C(=O)N[C@@H](CC(C)C)C(=O)N[C@@H](CCCCN)C(N)=O [KLLKPLKKLLKLLK],28.3 µM,20 µM,–

# More lines, main results first:
MIC [1],MIC [2],SMILES,also measured
> 52.2 µM,1.63 µM,CC[C@H](C)[C@H](NC(=O)[C@H](CCCCN)NC(=O)[C@H](CCCN=C(N)N)NC(=O)[C@@H](N)CCC(N)=O)C(=O)N[C@@H](CCCN=C(N)N)C(=O)N[C@H](C(=O)N[C@@H](CCCN=C(N)N)C(=O)N[C@@H](CC(C)C)C(=O)N[C@@H](CO)C(=O)N[C@@H](C)C(=O)O)C(C)C [QRKIRVRLSA],MIC [3]: 3.26 µM
40.5 µM,10.1 µM,CC[C@H](C)[C@H](NC(=O)[C@H](CC(=O)O)NC(=O)[C@H](CC(C)C)NC(=O)[C@@H](NC(=O)CN)C(C)C)C(=O)N[C@@H](CC(C)C)C(=O)N[C@@H](CCCCN)C(=O)NCC(=O)N[C@@H](C)C(=O)N[C@@H](C)C(=O)N[C@@H](CCCCN)C(=O)N[C@@H](CC(=O)O)C(=O)N[C@@H](CC(C)C)C(=O)N[C@@H](C)C(=O)NCC(=O)N[C@@H](Cc1cnc[nH]1)C(=O)O [GVLDILKGAAKDLAGH],–
> 51 µM,12.8 µM,CC[C@H](C)[C@H](NC(=O)[C@H](CCCN=C(N)N)NC(=O)[C@H](CCCN=C(N)N)NC(=O)[C@@H](N)CCC(N)=O)C(=O)N[C@@H](CCCN=C(N)N)C(=O)N[C@H](C(=O)N[C@@H](CCCN=C(N)N)C(=O)N[C@@H](CC(C)C)C(=O)N[C@@H](CO)C(=O)N[C@@H](C)C(=O)O)C(C)C [QRRIRVRLSA],MIC [3]: 51 µM
10 µM,2.5 µM,CC(C)C[C@H](NC(=O)[C@H](CCCCN)NC(=O)[C@H](CC(C)C)NC(=O)[C@H](CC(C)C)NC(=O)[C@H](CCCCN)NC(=O)[C@H](CCCCN)NC(=O)[C@H](CO)NC(=O)[C@H](CC(C)C)NC(=O)[C@H](CCCCN)NC(=O)[C@H](CC(C)C)NC(=O)[C@H](CC(C)C)NC(=O)[C@H](CCCCN)NC(=O)[C@H](CCCCN)NC(=O)[C@@H](N)CC(C)C)C(=O)N[C@@H](C)C(=O)NCC(=O)O [LKKLLKLSKKLLKLAG],–
–,12.4 µM,C[C@H](NC(=O)[C@H](Cc1c[nH]c2ccccc12)NC(=O)[C@H](CCCN=C(N)N)NC(=O)[C@H](CCCN=C(N)N)NC(=O)[C@H](C)NC(=O)[C@H](CCCCN)NC(=O)[C@@H](N)Cc1ccc(O)cc1)C(=O)N[C@@H](Cc1c[nH]c2ccccc12)C(=O)N[C@@H](CCCN=C(N)N)C(=O)N[C@@H](Cc1c[nH]c2ccccc12)C(=O)N[C@@H](CCCCN)C(=O)O [YKARRWAWRWK],MIC [3]: 31.1 µM; MIC [5]: 12.4 µM
